According to US20250025443A1, “COMPOUNDS AND METHODS FOR TREATING CORONA VIRUSES” (CLEAR CREEK BIO, INC., priority 2021, published 2025):

Each compound was assayed against SARS-CoV-2 Papain-Like Protease (PLpro) (Severe acute respiratory syndrome coronavirus 2 (2019-nCoV) (SARS-CoV-2), UniProt P0DTD1) (assay: biochemical). Conditions: PLpro 6.25 nM, substrate 25 μM, 60 min at 25° C.; for more potent compounds PLpro 1 nM, 120 min; read-out: PLpro IC50.
`CC(=O)c1ccc(C)c(C(=O)N[C@H](C)c2cccc3ccccc23)c1` [Compound 155, (R)-5-Acetyl-2-methyl-N-(1-(naphthalen-1-yl)ethyl)benzamide] was tested, and the IC50 was > 5000 nM.

Same assay, conditions: PLpro enzymatic fluorescence assay; class symbols; read-out: PLpro IC50
`Cc1ccc(OCC2CCN2C)cc1C(=O)NC1(c2nccc3ccccc23)CC1` (centres unmarked) [Compound 454, N-(1-(Isoquinolin-1-yl)cyclopropyl)-2-methyl-5-((1-methylazetidin-2-yl)methoxy)benzamide] showed an IC50 of 100 to 1000 nM.
In the case of `CC(C)=Cc1cc(C2(NC(=O)c3cc(OC[C@@H]4CCN4C)ccc3C)CC2)c2cccnc2c1` [Compound 603, (S)-2-Methyl-5-((1-methylazetidin-2-yl)methoxy)-N-(1-(7-(2-methylprop-1-en-1-yl)quinolin-5-yl)cyclopropyl)benzamide], the IC50 is reported as < 100 nM.
In the case of `Cc1ncc(-c2cc(C3(NC(=O)c4cc(OC[C@@H]5CCN5)ccc4C)CC3)c3cccnc3c2)o1` [Compound 698, (S)-5-(Azetidin-2-ylmethoxy)-2-methyl-N-(1-(7-(2-methyloxazol-5-yl)quinolin-5-yl)cyclopropyl)benzamide], the IC50 is reported as < 100 nM.
For `Cc1ccc2c(C3(NC(=O)c4cc(OC[C@@H]5CCN5C)ccc4C)CC3)cc(NCC(F)(F)F)cc2n1` [Compound 826, (S)-2-Methyl-N-(1-(2-methyl-7-((2,2,2-trifluoroethyl)amino)quinolin-5-yl)cyclopropyl)-5-((1-methylazetidin-2-yl)methoxy)benzamide], the IC50 was < 100 nM.
With `Cc1ccc2c(C3(NC(=O)c4cc(OC[C@@H]5CCN5C)ccc4C)CC3)cc(N(C)S(C)(=O)=O)cc2n1` [Compound 819, (S)-2-Methyl-N-(1-(2-methyl-7-(N-methylmethylsulfonamido)quinolin-5-yl)cyclopropyl)-5-((1-methylazetidin-2-yl)methoxy)benzamide] the IC50 was < 100 nM.
For `COc1cc(C2(NC(=O)c3cc(OC[C@@H](C)N)ccc3C)CC2)c2cccnc2c1` [Compound 535, (R)-5-(2-Aminopropoxy)-N-(1-(7-methoxyquinolin-5-yl)cyclopropyl)-2-methylbenzamide], the IC50 was < 100 nM.
For `Cc1ccc(N2CC(N)C2)cc1C(=O)NC1(c2cccc3ccccc23)CC1` [Compound 464, 5-(3-Aminoazetidin-1-yl)-2-methyl-N-(1-(naphthalen-1-yl)cyclopropyl)benzamide], the IC50 was < 100 nM.
In the case of `Cc1ccc(OC[C@@H]2CCN2C)cc1C(=O)NC1(c2cc(-c3ccn(C)n3)cc3ncccc23)CC1` [Compound 582, (S)-2-Methyl-N-(1-(7-(1-methyl-1H-pyrazol-3-yl)quinolin-5-yl)cyclopropyl)-5-((1-methylazetidin-2-yl)methoxy)benzamide], the IC50 is reported as < 100 nM.
For `Cc1ccc(OCC2CN(C)C2)cc1C(=O)NC1(c2cccc3ccccc23)CC1` [Compound 427, 2-Methyl-5-((1-methylazetidin-3-yl)methoxy)-N-(1-(naphthalen-1-yl)cyclopropyl)benzamide], the IC50 was < 100 nM.
With `C=Cc1cc(C2(NC(=O)c3cc(OCCNC)ccc3C)CC2)c2cccnc2c1` [Compound 615, 2-Methyl-5-(2-(methylamino)ethoxy)-N-(1-(7-vinylquinolin-5-yl)cyclopropyl)benzamide] the IC50 was < 100 nM.
In the case of `Cc1ccc(OC[C@@H]2CCN2)cc1C(=O)NC1(c2cc(-c3ccn(C(F)F)n3)cc3ncccc23)CC1` [Compound 656, (S)-5-(Azetidin-2-ylmethoxy)-N-(1-(7-(1-(difluoromethyl)-1H-pyrazol-3-yl)quinolin-5-yl)cyclopropyl)-2-methylbenzamide], the IC50 is reported as < 100 nM.
For `Cc1ccc(OC[C@@H]2CCN2C)cc1C(=O)NC1(c2cc(-c3cnc(N4CCCCC4)nc3)cc3ncccc23)CC1` [Compound 701, (S)-2-Methyl-5-((1-methylazetidin-2-yl)methoxy)-N-(1-(7-(2-(piperidin-1-yl)pyrimidin-5-yl)quinolin-5-yl)cyclopropyl)benzamide], the IC50 was < 100 nM.

Same assay, conditions: SARS-CoV-2 PLpro enzymatic fluorescence assay; read-out: PLpro IC50
Compound `Cc1ccc(OCCN(C)C)cc1C(=O)NC1(c2ccccc2C(C)C)CC1` [Compound 344, 5-(2-(Dimethylamino)ethoxy)-N-(1-(2-isopropylphenyl)cyclopropyl)-2-methylbenzamide] has an IC50 of 100 to 1000 nM.
`CNCCc1cc2cc(C)c(C(=O)NC3(c4cccc5ccccc45)CC3)cc2[nH]1` [Compound 222, 5-Methyl-2-(2-(methylamino)ethyl)-N-(1-(naphthalen-1-yl)cyclopropyl)-1H-indole-6-carboxamide] was tested, and the IC50 was 100 to 1000 nM.
For `Cc1ccc(OCCN(C)C)cc1C(=O)NC1(c2cccc(F)c2)CC1` [Compound 252, 5-(2-(Dimethylamino)ethoxy)-N-(1-(3-fluorophenyl)cyclopropyl)-2-methylbenzamide], the IC50 was > 5000 nM.
For `COCCNCCOc1ccc(C)c(C(=O)NC2(c3cccc4ccccc34)CC2)c1` [Compound 358, 5-(2-((2-Methoxyethyl)amino)ethoxy)-2-methyl-N-(1-(naphthalen-1-yl)cyclopropyl)benzamide], the IC50 was < 100 nM.
For `Cc1ccc(OCC23CCCN2CCC3)cc1C(=O)NC1(c2cccc3ccccc23)CC1` [Compound 376, 5-((Hexahydro-1H-pyrrolizin-7a-yl)methoxy)-2-methyl-N-(1-(naphthalen-1-yl)cyclopropyl)benzamide], the IC50 was < 100 nM.
In the case of `CNCCOc1ccc(C)c(C(=O)NC2(c3cc(OC)cc4ncccc34)CC2)c1` [Compound 526, N-(1-(7-Methoxyquinolin-5-yl)cyclopropyl)-2-methyl-5-(2-(methylamino)ethoxy)benzamide], the IC50 is reported as < 100 nM.
Compound `Cc1ccc(NC2CNC2)cc1C(=O)NC1(c2cccc(-c3ccccc3)c2)CC1` [Compound 187, N-(1-([1,1′-Biphenyl]-3-yl)cyclopropyl)-5-(azetidin-3-ylamino)-2-methylbenzamide] has an IC50 of 1000 to 5000 nM.
Work on `CCc1ccccc1C1(NC(=O)c2cc(OCCN(C)C)ccc2C)CC1` [Compound 364, 5-(2-(Dimethylamino)ethoxy)-N-(1-(2-ethylphenyl)cyclopropyl)-2-methylbenzamide] yielded an IC50 of 100 to 1000 nM.
`Cc1ccc(NC2CNC2)cc1C(=O)NC1(c2cccc(-c3ccc(CN4CCCC4)s3)c2)CC1` [Compound 186, 5-(Azetidin-3-ylamino)-2-methyl-N-(1-(3-(5-(pyrrolidin-1-ylmethyl)thiophen-2-yl)phenyl)cyclopropyl)benzamide] showed an IC50 of 100 to 1000 nM.
For `COc1cc(C2(NC(=O)c3cc(CC[C@@H]4CCC4C)ccc3C)CC2)c2ccncc2c1` (some centres unmarked) [Compound 538], the IC50 was < 100 nM.
In the case of `CNCCOc1ccc(C)c(C(=O)NC2(c3cccc4ncccc34)CC2)c1` [Compound 385, 2-Methyl-5-(2-(methylamino)ethoxy)-N-(1-(quinolin-5-yl)cyclopropyl)benzamide], the IC50 is reported as < 100 nM.
In the case of `Cc1cc(C2(NC(=O)c3cc(OCC4CCN4C)ccc3C)CC2)c2ccccc2c1` (centres unmarked) [Compound 501, 2-Methyl-5-((1-methylazetidin-2-yl)methoxy)-N-(1-(3-methylnaphthalen-1-yl)cyclopropyl)benzamide], the IC50 is reported as < 100 nM.
In the case of `Cc1ccc(NC2CNC2)cc1C(=O)NCc1cccc(-c2ccc(CN3CCCC3)s2)c1` [Compound 120, 5-(Azetidin-3-ylamino)-2-methyl-N-(3-(5-(pyrrolidin-1-ylmethyl)thiophen-2-yl)benzyl)benzamide], the IC50 is reported as > 5000 nM.
In the case of `Cc1ccc(OC[C@@H]2CCN2C)cc1C(=O)NC1(c2cc(Cl)nc3cc(F)ccc23)CC1` [Compound 586, (S)-N-(1-(2-Chloro-7-fluoroquinolin-4-yl)cyclopropyl)-2-methyl-5-((1-methylazetidin-2-yl)methoxy)benzamide], the IC50 is reported as < 100 nM.
`Cc1ccc(OCC2CCN2c2ccccc2)cc1C(=O)NC1(c2cccc3ccccc23)CC1` (centres unmarked) [Compound 331, 2-Methyl-N-(1-(naphthalen-1-yl)cyclopropyl)-5-((1-phenylazetidin-2-yl)methoxy)benzamide] was tested, and the IC50 was > 5000 nM.
In the case of `COc1cc(C2(NC(=O)c3cc(OCCN)ccc3C)CC2)c2ccccc2c1` [Compound 363, 5-(2-Aminoethoxy)-N-(1-(3-methoxynaphthalen-1-yl)cyclopropyl)-2-methylbenzamide], the IC50 is reported as < 100 nM.
For `Cc1ccc(OCCN(C)C)cc1C(=O)NC1(c2cccc3ncccc23)CC1` [Compound 301, 5-(2-(Dimethylamino)ethoxy)-2-methyl-N-(1-(quinolin-5-yl)cyclopropyl)benzamide], the IC50 was < 100 nM.
In the case of `Cc1cc2cc(CN)[nH]c2cc1C(=O)NC1(c2ccc3ccccc3c2)CC1` [Compound 248, 2-(Aminomethyl)-5-methyl-N-(1-(naphthalen-2-yl)cyclopropyl)-1H-indole-6-carboxamide], the IC50 is reported as 1000 to 5000 nM.
For `Cc1ccc(OCCN2CCCCC2)cc1C(=O)NC1(c2cccc3ccccc23)CC1` [Compound 254, 2-Methyl-N-(1-(naphthalen-1-yl)cyclopropyl)-5-(2-(piperidin-1-yl)ethoxy)benzamide], the IC50 was < 100 nM.
With `C=Cc1cc(C2(NC(=O)c3cc(OC[C@@H]4CCN4C)c(F)cc3C)CC2)c2cccnc2c1` [Compound 800, (S)-4-Fluoro-2-methyl-5-((1-methylazetidin-2-yl)methoxy)-N-(1-(7-vinylquinolin-5-yl)cyclopropyl)benzamide] the IC50 was < 100 nM.
In the case of `Cc1ccc(OCCN(C)C)cc1C(=O)NC1(c2cccc3cnccc23)CC1` [Compound 299, 5-(2-(Dimethylamino)ethoxy)-N-(1-(isoquinolin-5-yl)cyclopropyl)-2-methylbenzamide], the IC50 is reported as < 100 nM.
`Cc1ccc(OCCN(C)C)cc1C(=O)NC1(c2cccc3[nH]c4ccccc4c23)CC1` [Compound 415, N-(1-(9H-Carbazol-4-yl)cyclopropyl)-5-(2-(dimethylamino)ethoxy)-2-methylbenzamide] gave an IC50 of 100 to 1000 nM.
`Cc1ccc(OCC2(C)CCN2C)cc1C(=O)NC1(c2cccc3ccccc23)CC1` (centres unmarked) [Compound 404, 5-((1,2-Dimethylazetidin-2-yl)methoxy)-2-methyl-N-(1-(naphthalen-1-yl)cyclopropyl)benzamide] was tested, and the IC50 was < 100 nM.
With `Cc1ccc(OCC2CCN2C)cc1C(=O)NC1(c2cc(C#N)cc3ccccc23)CC1` (centres unmarked) [Compound 484, N-(1-(3-Cyanonaphthalen-1-yl)cyclopropyl)-2-methyl-5-((1-methylazetidin-2-yl)methoxy)benzamide] the IC50 was < 100 nM.
`Cc1ccc(CC#N)cc1C(=O)NC1(c2cccc3ccccc23)CC1` [Compound 313, 5-(Cyanomethyl)-2-methyl-N-(1-(naphthalen-1-yl)cyclopropyl)benzamide] gave an IC50 of 100 to 1000 nM.
